According to patent US20200262787A1, “OPTICAL COMPONENT FORMING COMPOSITION AND CURED PRODUCT THEREOF” (Mitsubishi Gas Chemical Company, Inc., priority 2016, published 2020):

Assay: Organic solvent solubility test of compound
Type: physicochemical
Conditions: compound in propylene glycol monomethyl ether acetate, 23° C., ultrasonic waves 30 minutes, visual
Protocol: The solubility of the compound in propylene glycol monomethyl ether acetate was measured as the solubility of the compound in an organic solvent.
A: 5.0% by mass Amount of dissolution
C: Amount of dissolution <3.0% by mass

Structure (SMILES) | Solubility in organic solvent
Oc1ccc([Te](Cl)(Cl)c2ccc(O)cc2)cc1 [BHPT, bis(4-hydroxyphenyl)tellurium dichloride] | A (5.0% by mass Amount of dissolution)
CC1(OC(=O)COc2ccc([Te](Cl)(Cl)c3ccc(OCC(=O)OC4(C)C5CC6CC(C5)CC4C6)cc3)cc2)C2CC3CC(C2)CC1C3 (centres unmarked) [BHPT-ADBAC, bis(4-(2-methyl-2-adamantyloxycarbonylmethoxy)phenyl)tellurium dichloride] | A (5.0% by mass Amount of dissolution)
CC(C)(C)OC(=O)Oc1ccc([Te](Cl)(Cl)c2ccc(OC(=O)OC(C)(C)C)cc2)cc1 [BHPT-BOC, bis(tert-butoxycarboxyphenyl)tellurium dichloride] | A (5.0% by mass Amount of dissolution)
CCOC(C)Oc1ccc([Te](Cl)(Cl)c2ccc(OC(C)OCC)cc2)cc1 (centres unmarked) [BHPT-EE, bis(ethoxyethylphenyl)tellurium dichloride] | A (5.0% by mass Amount of dissolution)
Oc1ccc([Te](Cl)(Cl)c2ccc(O)cc2O)cc1 [CCHT, (2,4-dihydroxyphenyl) (4-hydroxyphenyl)tellurium dichloride] | A (5.0% by mass Amount of dissolution)
CC1(OC(=O)COc2ccc([Te](Cl)(Cl)c3ccc(OCC(=O)OC4(C)C5CC6CC(C5)CC4C6)cc3OCC(=O)OC3(C)C4CC5CC(C4)CC3C5)cc2)C2CC3CC(C2)CC1C3 (centres unmarked) [CCHT-ADBAC] | A (5.0% by mass Amount of dissolution)
Oc1ccc([Te](Cl)(Cl)c2ccc(O)c(-c3ccccc3)c2)cc1-c1ccccc1 [Ph-BHPT, bis(3-phenyl-4-hydroxyphenyl)tellurium dichloride] | A (5.0% by mass Amount of dissolution)
CC1(OC(=O)COc2ccc([Te](Cl)(Cl)c3ccc(OCC(=O)OC4(C)C5CC6CC(C5)CC4C6)c(-c4ccccc4)c3)cc2-c2ccccc2)C2CC3CC(C2)CC1C3 (centres unmarked) [Ph-BHPT-ADBAC] | A (5.0% by mass Amount of dissolution)
Oc1ccc([Te]c2ccc(O)c(-c3ccccc3)c2)cc1-c1ccccc1 [Ph-TDP, bis(3-phenyl-4-hydroxyphenyl)tellurium] | A (5.0% by mass Amount of dissolution)
CC1(OC(=O)COc2ccc([Te]c3ccc(OCC(=O)OC4(C)C5CC6CC(C5)CC4C6)c(-c4ccccc4)c3)cc2-c2ccccc2)C2CC3CC(C2)CC1C3 (centres unmarked) [Ph-TDP-ADBAC] | A (5.0% by mass Amount of dissolution)
CC(C)(C)OC(=O)COc1ccc([Te]c2ccc(OCC(=O)OC(C)(C)C)c(-c3ccccc3)c2)cc1-c1ccccc1 [Ph-TDP-BOC] | A (5.0% by mass Amount of dissolution)
CCOC(C)Oc1ccc([Te](Cl)(Cl)c2ccc(OC(C)OCC)c(-c3ccccc3)c2)cc1-c1ccccc1 (centres unmarked) [Ph-TDP-EE] | A (5.0% by mass Amount of dissolution)
Oc1ccc([Te]c2ccc(O)cc2)cc1 [TDP, 4,4′-telluriumdiphenol] | A (5.0% by mass Amount of dissolution)
CC1(OC(=O)COc2ccc([Te]c3ccc(OCC(=O)OC4(C)C5CC6CC(C5)CC4C6)cc3)cc2)C2CC3CC(C2)CC1C3 (centres unmarked) [TDP-ADBAC] | A (5.0% by mass Amount of dissolution)
